Assay results published in ChEMBL document CHEMBL5661943, “ASAP - In vitro antiviral effect” (2024).

Experiments:
dengue virus type 2 = assay: Functional assay to measure dose dependent changes in antiviral-drug inhibitory efficacy against Dengue virus type 2 New Guinea C in Vero E6 miRFP670 cells (cotreated with P-gp inhibitor, CP100356). Cells are treated with antiviral candidates that are serially diluted, following infection, cells are fixed. EC50 is reported via analysis of fluorescence intensity using high-content imager. The …; assay type: organism-based, Chlorocebus sabaeus, Vero C1008; settings: Dengue virus
Zika virus = assay: Functional CPE-based assay to measure dose dependent changes in antiviral-drug inhibitory efficacy against Zika virus MR766 in Vero E6 miRFP670 cells (cotreated with P-gp inhibitor, CP100356). Cells are treated with antiviral candidates that are serially diluted. EC50 is reported via analysis of MTS assay as a readout of CPE. The assay has been performed by KU Leuven.; assay type: organism-based, Chlorocebus sabaeus, Vero C1008; settings: Zika virus

SMILES	EC50 (dengue virus type 2; Vero C1008)	EC50 (Zika virus; Vero C1008)	also measured
O=C(Nc1ccc2c(c1)CNC2)c1cc(Cl)cc2[nH]c(-c3ccc(F)cc3O)nc12	> 1.56 µM	> 0.781 µM	EC90 (dengue virus type 2; Vero C1008, Maximum measured 186.201 %, Minimum measured 124.759 %, P-gp concentration 500 nM, P-gp inhibitor CP100356): > 1.56 µM; EC90 (Zika virus; Vero C1008, Baseline response 0 %, Hill slope 0.819, Maximum measured -0.871 %, Maximum response 100 %, Minimum measured -1.788 %, P-gp concentration 500 nM, R squared 0.426, P-gp inhibitor CP100356): > 0.781 µM
Cc1cnccc1-c1cc(NC(=O)c2cc(F)cc3[nH]ncc23)cc2c1CNC2	> 25 µM	> 50 µM	EC90 (dengue virus type 2; Vero C1008, Maximum measured 259.167 %, Minimum measured 80.59 %, P-gp concentration 500 nM, P-gp inhibitor CP100356): > 25 µM; EC90 (Zika virus; Vero C1008, Baseline response 0 %, Hill slope 2.277, Maximum measured 10.357 %, Maximum response 100 %, Minimum measured -2.491 %, P-gp concentration 500 nM, R squared 0.469, P-gp inhibitor CP100356): > 50 µM
CNC(=O)[C@H](Nc1cc(Cl)cc(NC(=O)OCc2ccccc2)c1)c1cccc(CN)c1	7.19 µM	–	EC90 (dengue virus type 2; Vero C1008, Baseline response 0 %, EC90 CI (lower) 3.139 uM, EC90 CI (upper) 9.78 uM, Hill slope -8.413, Maximum measured 116.634 %, Maximum response 100 %, Minimum measured 2.553 %, P-gp concentration 500 nM, R squared 0.885, P-gp inhibitor CP100356): 9.34 µM
C=CC[C@H](Nc1cccc(-c2nn[nH]n2)c1)c1cc(Cl)cc(NC(=O)OCc2ccccc2)c1	< 0.391 µM	–	EC90 (dengue virus type 2; Vero C1008, Baseline response 0 %, EC90 CI (lower) 0.009 uM, EC90 CI (upper) 0.062 uM, Hill slope -1.268, Maximum measured 19.733 %, Maximum response 100 %, Minimum measured 0.468 %, P-gp concentration 500 nM, R squared 0.944, P-gp inhibitor CP100356): 0.74 µM
O=C(Nc1cc2c(c(C3=CCS(=O)(=O)CC3)c1)CNC2)c1cc(F)cc2[nH]ncc12	> 25 µM	> 50 µM	EC90 (dengue virus type 2; Vero C1008, Maximum measured 118.058 %, Minimum measured 98.99 %, P-gp concentration 500 nM, P-gp inhibitor CP100356): > 25 µM; EC90 (Zika virus; Vero C1008, Maximum measured 6.141 %, Minimum measured -2.074 %, P-gp concentration 500 nM, P-gp inhibitor CP100356): > 50 µM
COc1ccc(S(=O)(=O)Nc2cc(F)c(Cl)cc2C(=O)NCC(C)C)cc1	5.86 µM	–	EC90 (dengue virus type 2; Vero C1008): 6.67 µM
O=C(Nc1ccc2c(c1)CNC2)c1cc(Cl)cc(N2CCCC2)c1	–	> 50 µM	EC90 (Zika virus; Vero C1008, Maximum measured 3.676 %, Minimum measured -16.143 %, P-gp concentration 500 nM, P-gp inhibitor CP100356): > 50 µM
C=CC[C@H]1NCc2cc(NC(=O)c3cc(Cl)cc4[nH]ncc34)ccc21	–	> 50 µM	EC90 (Zika virus; Vero C1008, Baseline response 0 %, Hill slope 0.168, Maximum measured 60.303 %, Maximum response 100 %, Minimum measured -6.598 %, P-gp concentration 500 nM, R squared 0.022, P-gp inhibitor CP100356): > 50 µM
C[C@H]1NCc2cc(NC(=O)c3cc(F)cc4[nH]ncc34)ccc21	–	> 50 µM	EC90 (Zika virus; Vero C1008, Baseline response 0 %, Hill slope 1.233, Maximum measured 13.741 %, Maximum response 100 %, Minimum measured -1.755 %, P-gp concentration 500 nM, R squared 0.661, P-gp inhibitor CP100356): > 50 µM
O=C(Nc1cc(Cl)cc([C@H](C#CCO)Nc2ccc(-c3nn[nH]n3)cc2)c1)OCc1ccccc1	> 50 µM	–	EC90 (dengue virus type 2; Vero C1008, Maximum measured 120.318 %, Minimum measured 85.942 %, P-gp concentration 500 nM, P-gp inhibitor CP100356): > 50 µM
O=C(Nc1cc(Cl)cc([C@H]2C[C@@H]2c2cccc(-c3nnn[nH]3)c2)c1)OCc1ccccc1	> 25 µM	–	EC90 (dengue virus type 2; Vero C1008, Maximum measured 174.938 %, Minimum measured 87.593 %, P-gp concentration 500 nM, P-gp inhibitor CP100356): > 25 µM
N#C[C@H](Nc1cc(Cl)cc(NC(=O)OCc2ccccc2)c1)c1ccc(-c2nn[nH]n2)cc1	> 50 µM	–	EC90 (dengue virus type 2; Vero C1008, Baseline response 0 %, Hill slope -0.236, Maximum measured 132.412 %, Maximum response 100 %, Minimum measured 19.2 %, P-gp concentration 500 nM, R squared 0.02, P-gp inhibitor CP100356): > 50 µM
N[C@H]1Cc2ccc(NC(=O)c3cc(Cl)cc(NC(=O)OCc4ccccc4)c3)cc2C1	1.64 µM	–	EC90 (dengue virus type 2; Vero C1008, Baseline response 0 %, EC90 CI (lower) 0.187 uM, EC90 CI (upper) 8.327 uM, Hill slope -7.929, Maximum measured 105.944 %, Maximum response 100 %, Minimum measured 3.386 %, P-gp concentration 500 nM, R squared 0.874, P-gp inhibitor CP100356): 2.17 µM
O=C(Nc1cc(Cl)cc(C(=O)Nc2ccc([C@@H]3C[C@H]3C(=O)O)cc2)c1)OCc1ccccc1	> 50 µM	–	EC90 (dengue virus type 2; Vero C1008, Maximum measured 124.209 %, Minimum measured 92.524 %, P-gp concentration 500 nM, P-gp inhibitor CP100356): > 50 µM
NCc1cccc(-c2csc3cc(C(=O)Nc4ccc5c(c4)CNC5)ccc23)c1	–	2.4 µM	EC90 (Zika virus; Vero C1008, Baseline response 0 %, Hill slope 1.279, Maximum measured 60.824 %, Maximum response 100 %, Minimum measured 10.172 %, P-gp concentration 500 nM, R squared 0.942, P-gp inhibitor CP100356): > 3.12 µM
O=C(Nc1ccc2c(c1)CN[C@H]2C1CC1)c1cc(F)cc2[nH]ncc12	–	6.28 µM	EC90 (Zika virus; Vero C1008): 7.09 µM
N[C@H]1CC[C@H](c2ccc(NC(=O)c3cc(Cl)cc(NC(=O)OCc4ccccc4)c3)cc2)C1	1.49 µM	–	EC90 (dengue virus type 2; Vero C1008, Baseline response 0 %, Hill slope -16.959, Maximum measured 155.273 %, Maximum response 100 %, Minimum measured 29.767 %, P-gp concentration 500 nM, R squared 0.495, P-gp inhibitor CP100356): > 1.56 µM

SMILES	EC50 (dengue virus type 2; Vero C1008)	EC50 (Zika virus; Vero C1008)	also measured
CC(=Cc1cc(Cl)cc(NC(=O)OCc2ccccc2)c1)c1cccc(CN)c1	> 1.56 µM	–	EC90 (dengue virus type 2; Vero C1008, Maximum measured 159.566 %, Minimum measured 81.442 %, P-gp concentration 500 nM, P-gp inhibitor CP100356): > 1.56 µM
CN(C)C(=O)c1cc(CN)cc([C@@H]2C[C@H]2c2cc(Cl)cc(NC(=O)OCc3ccccc3)c2)c1	2 µM	–	EC90 (dengue virus type 2; Vero C1008, Baseline response 0 %, Hill slope -4.597, Maximum measured 117.075 %, Maximum response 100 %, Minimum measured 13.909 %, P-gp concentration 500 nM, R squared 0.926, P-gp inhibitor CP100356): > 3.12 µM
O=C(Nc1cc(Cl)cc(CNc2cccc(-c3nn[nH]n3)c2)c1)OCc1ccccc1	> 25 µM	–	EC90 (dengue virus type 2; Vero C1008, Maximum measured 175.327 %, Minimum measured 92.337 %, P-gp concentration 500 nM, P-gp inhibitor CP100356): > 25 µM
CNC(=O)[C@H](Nc1cccc(CN)c1)c1cc(Cl)cc(NC(=O)OCc2ccccc2)c1	7.81 µM	–	EC90 (dengue virus type 2; Vero C1008, Baseline response 0 %, EC90 CI (lower) 4.909 uM, EC90 CI (upper) 7.205 uM, Hill slope -8.054, Maximum measured 105.221 %, Maximum response 100 %, Minimum measured 2.373 %, P-gp concentration 500 nM, R squared 0.934, P-gp inhibitor CP100356): 10.3 µM
CC(=Cc1cccc(CN)c1)c1cc(Cl)cc(NC(=O)OCc2ccccc2)c1	> 6.25 µM	–	EC90 (dengue virus type 2; Vero C1008, Maximum measured 157.677 %, Minimum measured 102.187 %, P-gp concentration 500 nM, P-gp inhibitor CP100356): > 6.25 µM
NCc1ccc([C@H]2C[C@@H]2c2cc(Cl)cc(NC(=O)OCc3ccccc3)c2)cc1	2.72 µM	–	EC90 (dengue virus type 2; Vero C1008, Baseline response 0 %, Hill slope -3.689, Maximum measured 118.529 %, Maximum response 100 %, Minimum measured 38.173 %, P-gp concentration 500 nM, R squared 0.774, P-gp inhibitor CP100356): > 3.12 µM
O=C(Nc1ccc2c(c1)CNC2)c1cc(Cl)cc2[nH]c(-c3cccc(F)c3)nc12	–	> 50 µM	EC90 (Zika virus; Vero C1008, Baseline response 0 %, Hill slope 0.814, Maximum measured 40.434 %, Maximum response 100 %, Minimum measured 0.118 %, P-gp concentration 500 nM, R squared 0.904, P-gp inhibitor CP100356): > 50 µM
C[C@@]1(O)[C@H](O)[C@@H](CO)O[C@H]1n1ccc(N)nc1=O	116 µM	–	EC90 (dengue virus type 2; Vero C1008, Baseline response 0 %, Hill slope -2.692, Maximum measured 107.888 %, Maximum response 100 %, Minimum measured 21.977 %, P-gp concentration 500 nM, R squared 0.958, P-gp inhibitor CP100356): > 200 µM
O=C(Nc1ccc2c(c1)CNC2)c1cc(Cl)cc2[nH]c(-c3ccccc3)nc12	–	> 50 µM	EC90 (Zika virus; Vero C1008, Baseline response 0 %, Hill slope 1.72, Maximum measured 10.819 %, Maximum response 100 %, Minimum measured -5.769 %, P-gp concentration 500 nM, R squared 0.199, P-gp inhibitor CP100356): > 50 µM
O=C(Nc1cc(Cl)cc(C(=O)Nc2ccc3c(c2)CCNC3)c1)OCc1ccccc1	> 1.56 µM	–	EC90 (dengue virus type 2; Vero C1008, Maximum measured 159.578 %, Minimum measured 136.105 %, P-gp concentration 500 nM, P-gp inhibitor CP100356): > 1.56 µM
O=C(O)Cn1ncc2cc(-c3cc(Cl)cc(NC(=O)OCc4ccccc4)c3)ccc21	> 50 µM	–	EC90 (dengue virus type 2; Vero C1008, Maximum measured 125.945 %, Minimum measured 96.066 %, P-gp concentration 500 nM, P-gp inhibitor CP100356): > 50 µM
CC1(C)NCc2cc(NC(=O)c3cc(F)cc4[nH]ncc34)ccc21	–	> 50 µM	EC90 (Zika virus; Vero C1008, Maximum measured -0.426 %, Minimum measured -7.479 %, P-gp concentration 500 nM, P-gp inhibitor CP100356): > 50 µM
Clc1cccc([C@H](C#Cc2ccccc2)Nc2cccc(-c3nn[nH]n3)c2)c1	> 6.25 µM	–	EC90 (dengue virus type 2; Vero C1008, Maximum measured 160.53 %, Minimum measured 108.244 %, P-gp concentration 500 nM, P-gp inhibitor CP100356): > 6.25 µM
NCc1ccc2c(c1)[C@H]1OCCC[C@H]1[C@H](c1cc(Cl)cc(NC(=O)OCc3ccccc3)c1)N2	1.9 µM	–	EC90 (dengue virus type 2; Vero C1008, Baseline response 0 %, EC90 CI (lower) 1.087 uM, EC90 CI (upper) 1.673 uM, Hill slope -6.376, Maximum measured 104.423 %, Maximum response 100 %, Minimum measured 0.619 %, P-gp concentration 500 nM, R squared 0.968, P-gp inhibitor CP100356): 2.69 µM
C=CC[C@H](Nc1cc(Cl)cc(NC(=O)OCc2ccccc2)c1)c1cccc(CN)c1	0.546 µM	–	EC90 (dengue virus type 2; Vero C1008, Baseline response 0 %, EC90 CI (lower) 0.029 uM, EC90 CI (upper) 0.719 uM, Hill slope -1.654, Maximum measured 56.301 %, Maximum response 100 %, Minimum measured 0.945 %, P-gp concentration 500 nM, R squared 0.693, P-gp inhibitor CP100356): 2.06 µM
C=C1C[C@H](c2cc(Cl)cc(NC(=O)OCc3ccccc3)c2)[C@@H](c2cccc(-c3nn[nH]n3)c2)C1	> 6.25 µM	–	EC90 (dengue virus type 2; Vero C1008, Maximum measured 124.641 %, Minimum measured 90.066 %, P-gp concentration 500 nM, P-gp inhibitor CP100356): > 6.25 µM
